The source of these data is ChEMBL document CHEMBL1128082, “Inhibition of an HIV-1 Tat-derived peptide binding to TAR RNA by aminoglycoside antibiotics” (Bioorg Med Chem Lett, 1995).

pIC50: −log10 of the molar value.

The test concerns the target Nucleic Acid. The test is described as follows: Concentration required for the inhibition of HIV- 1 Tat-derived peptide binding to TAR RNA. The class given is nucleic-acid assay.
A word on the pIC50: it is the negative decadic logarithm of the IC50, by convention in mol/L. Higher therefore signals a small IC50. Compound `CN[C@@H]1[C@H](O[C@H]2[C@H](O[C@H]3[C@H](O)[C@@H](O)[C@H](N=C(N)N)[C@@H](O)[C@@H]3N=C(N)N)O[C@@H](C)[C@]2(O)C=O)O[C@@H](CO)[C@H](O)[C@H]1O` [STREPTOMYCIN] showed a pIC50 of 5.02.
As to GENTAMICIN, the pIC50 was 4.35. Against the preceding compound, the pIC50 is 0.67 log units lower.
`NC[C@@H]1O[C@H](O[C@H]2[C@@H](O)[C@H](O[C@@H]3[C@@H](O)[C@H](N)C[C@H](N)[C@H]3O[C@H]3O[C@H](CN)[C@@H](O)[C@H](O)[C@H]3N)O[C@@H]2CO)[C@H](N)[C@@H](O)[C@@H]1O` [FRAMYCETIN] gave a pIC50 of 6.04.
